From US12624309B2, “Enol ether properfume” (Firmenich SA, priority 2020, dated 2026)

Test: Acid-catalyzed hydrolysis of enol ethers in THF/1 M HCl, percent remaining by GC-FID
Type: physicochemical
Settings: for rate of hydrolysis / hydrolytic stability compared to corresponding enol ethers prepared from alkyl alcohols / percent remaining, 72 h / percent remaining, 168 h / percent remaining, 336 h / percent remaining, 504 h / percent remaining, 672 h / percent remaining, initial / percent remaining, 24 h / percent remaining, 48 h: THF/1M HCl (80:20 v/v); for rate of hydrolysis / hydrolytic stability compared to corresponding enol ethers prepared from alkyl alcohols: in words; for percent remaining, 72 h / percent remaining, 168 h / percent remaining, 336 h / percent remaining, 504 h / percent remaining, 672 h / percent remaining, initial / percent remaining, 24 h / percent remaining, 48 h: room temperature; for percent remaining, initial: time zero
Procedure: Each enol ether was dissolved in a 4:1 THF/1 M HCl mixture and the percent remaining over time measured relative to an internal standard.
After mixing, 2 mL of this solution were removed with a volumetric pipet and used to obtain the time zero measurement. 2 mL of 1 M HCl were mixed with the remaining 8 mL of the THF solution. This mixture was divided into 5 mL vials (1 mL per vial). The vials were gently topped with nitrogen and fitted with screw caps around which parafilm was wrapped. The vials were stored at room temperature until analyzed. For analyses, 2 mL of ethyl acetate was added to a vial and mixed. After phase separation, the top phase was collected and washed with saturated sodium carbonate (1 mL). Samples of the organic phase were analyzed by GC-FID. For the time zero sample, 0.5 mL of deionized water was added to the 2 mL taken from the original THF solution. 1 mL of this solution was added to a 5 mL vial and diluted with 2 mL of ethyl acetate and mixed. The top phase was collected and washed with saturated sodium carbonate (1 mL). The top phase then was analyzed by GC-FID. The percent of enol ether remaining was determined by dividing the peak area ratio of the enol ether to internal standard by the ratio measured at time zero.

Structure (SMILES)	rate of hydrolysis / hydrolytic stability compared to corresponding enol ethers prepared from alkyl alcohols	percent remaining, 72 h	percent remaining, 168 h	percent remaining, 336 h	percent remaining, 504 h (504 h)	percent remaining, 672 h	percent remaining, initial	percent remaining, 24 h	percent remaining, 48 h	enol ether remained after 504 h (21 days) (Table 1, THF/1M HCl, 504 h)
COC(=O)C(C)(C)OC=C(C)c1ccccc1 [Compound 25, methyl 2-methyl-2-((2 phenylprop-1-en-1-yl)oxy)propanoate]	improved hydrolytic stability	100%	98.1%	93.6%	90.0%	89.6%	100%	–	–	–
COC(=O)C(C)(C)OC=C(C)c1ccc(OC)cc1 [Compound 27, methyl 2-((2-(4-methoxyphenyl)prop-1-en-1-yl)oxy)-2-methylpropanoate]	–	99.7%	97.8%	87.7%	89.1%	84.7%	100%	102%	101%	–
COC(=O)C(C)(C)OC=C(C)c1ccc(C)cc1 [Compound 28, (±)-methyl 2-methyl-2-((2-(p-tolyl)prop-1-en-1-yl)oxy)propanoatemethyl]	Slower rates of hydrolysis	98.5%	96.2%	92.1%	89.7%	85.8%	100%	99.3%	98.5%	–
CC/C=C\CCOC=Cc1ccc(OC)cc1 [Compound 51, 1-(2-(((Z)-hex-3-en-1-yl)oxy)vinyl)-4-methoxybenzene, reference compound]	–	72.4%	52.5%	29.1%	14.6%	10.1%	100%	89.1%	80.2%	14.6%
